Drawing on patent publication US8093231B2, “Sulfonylethyl phosphorodiamidates” (Telik, Inc., priority 2004, dated 2012), this text covers IC50 for 36 compounds.

The structures appear in SMILES notation.

Common to all, as to assay type: cell-based, human
The subject of assay [1] is LNCap (prostate carcinoma). In words: Cytotoxicity/growth inhibition assay, LNCap. The settings on record: LNCap cells, 4 days culture, CellTiter-Glo, 0.1-200 μM tested; read-out: IC50 (LNCap). In short, it runs like this:
(§1)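 Test compounds in DMSO (0.1–200 μM; final DMSO 0.5%) added to freshly diluted cells (3×10^3 cells/mL MX-1 and DLD-1, 6×10^3 cells/mL LNCap), triplicate wells. Cultured ~three doubling times (3 days MX-1, 4 days DLD-1/LNCap). CellTiter-Glo luminescence, 15 min room temperature; growth expressed as % of DMSO solvent control.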

Assay [2] concerns DLD-1 (colorectal adenocarcinoma). In words: Cytotoxicity/growth inhibition assay, DLD-1. Conditions: DLD-1 cells, 4 days culture, CellTiter-Glo, 0.1-200 μM tested; read-out: IC50 (DLD-1). Put shortly:
as §1

Assay [3] has as its system MX-1 (breast carcinoma). In words: Cytotoxicity/growth inhibition assay, MX-1. Conditions: MX-1 cells, 3 days culture, CellTiter-Glo, 0.1-200 μM tested; read-out: IC50 (MX-1). In short, it runs like this: as §1

Consider `CS(=O)(=O)N[C@@H](CS(=O)(=O)CCOP(=O)(N(CCCl)CCCl)N(CCCl)CCCl)C(=O)N1CCN(C(=O)c2ccco2)CC1` [Compound 98A], for which the 50% inhibitory concentration (IC50) in assay [1] was determined as 144 µM; in assay [2] it was 9.9 µM; in assay [3], 27.9 µM.
Taken in the same sequence, the figures for `Cc1cccc(S(=O)(=O)CCOP(=O)(N(CCCl)CCCl)N(CCCl)CCCl)c1` [Compound 110A] were 20.5 µM, 1.3 µM and 2.7 µM.
Consider `CS(=O)(=O)N[C@@H](CS(=O)(=O)CCOP(=O)(N(CCCl)CCCl)N(CCCl)CCCl)C(=O)O` [Compound 104A], for which the concentration for half-maximal inhibition (IC50) was not below 200 µM in assay [1], 20 µM in assay [2] and 25.3 µM in assay [3].
The like results for `N#Cc1ccc(S(=O)(=O)N[C@@H](CS(=O)(=O)CCOP(=O)(N(CCCl)CCCl)N(CCCl)CCCl)C(=O)NCc2ccccc2)cc1` [Compound 99A] were, in that order, 33.5 µM, 6.4 µM and 16.2 µM.
`O=C(O)CCC(=O)Nc1cc(CS(=O)(=O)CCOP(=O)(N(CCCl)CCCl)N(CCCl)CCCl)cc(CS(=O)(=O)CCOP(=O)(N(CCCl)CCCl)N(CCCl)CCCl)c1` [Compound 18B]: the IC50 in assay [1] was 49.8 µM; in assay [2], 2.7 µM; in assay [3], 8.4 µM.
Turning to `O=P(OCCS(=O)(=O)c1nc2ccccc2s1)(N(CCCl)CCCl)N(CCCl)CCCl` [Compound 121A], the results for the IC50 in assay [1], in assay [2] and in assay [3] were 8.5 µM, 1.2 µM and 2.6 µM, respectively.
Turning to `O=C(NCc1ccccc1)c1ccc(CS(=O)(=O)CCOP(=O)(N(CCCl)CCCl)N(CCCl)CCCl)cc1` [Compound 161A], the IC50 turned out to be 11.7 µM in assay [1], 3.7 µM in assay [2] and 7.4 µM in assay [3].
Turning to `O=C(NCCCN1CCOCC1)c1ccc(CS(=O)(=O)CCOP(=O)(N(CCCl)CCCl)N(CCCl)CCCl)cc1` [Compound 175A], the IC50 in assay [1] came to 65.1 µM; in assay [2] it was 10.9 µM; in assay [3], 18.2 µM.
For `O=P(OCCS(=O)(=O)c1ccc(Cl)cc1)(N(CCCl)CCCl)N(CCCl)CCCl` [Compound 108A], the IC50 was determined as 6.4 µM in assay [1], 2.3 µM in assay [2] and 3.3 µM in assay [3].
For the compound `O=P(OCCS(=O)(=O)Cc1ccc(F)cc1)(N(CCCl)CCCl)N(CCCl)CCCl` [Compound 132A], the IC50 in assay [1] was determined as 16.3 µM; in assay [2] it was 5 µM; in assay [3], 6.1 µM.
Taken in the same sequence, the figures for `CS(=O)(=O)N[C@@H](CS(=O)(=O)CCOP(=O)(N(CCCl)CCCl)N(CCCl)CCCl)C(=O)N1CCOCC1` [Compound 96A] were 81 µM, 9.6 µM and 30.2 µM.
Consider `O=C(c1ccc(CS(=O)(=O)CCOP(=O)(N(CCCl)CCCl)N(CCCl)CCCl)cc1)N1CCCCC1` [Compound 159A], for which the values for the IC50 in assay [1], in assay [2] and in assay [3] were 24.4 µM, 3.5 µM and 5.3 µM, respectively.
Turning to `COC(=O)[C@H](CS(=O)(=O)CCOP(=O)(N(CCCl)CCCl)N(CCCl)CCCl)NS(=O)(=O)c1ccccc1` [Compound 80A], the values for the half-inhibitory concentration (IC50) in assay [1], in assay [2] and in assay [3] were 80.2 µM, 10.7 µM and 27.1 µM, respectively.
The like results for `O=C(c1ccc(CS(=O)(=O)CCOP(=O)(N(CCCl)CCCl)N(CCCl)CCCl)cc1)N1CCCC1` [Compound 156A] were, in that order, 31.4 µM, 3.5 µM and 4.8 µM.
`CC(=O)N[C@@H](CS(=O)(=O)CCOP(=O)(N(CCCl)CCCl)N(CCCl)CCCl)C(=O)O` [Compound 73A]: the IC50 in assay [1] is 73.2 µM; in assay [2], 18 µM; in assay [3], 29.6 µM.
With `O=P(OCCS(=O)(=O)c1ncc2nc[nH]c2n1)(N(CCCl)CCCl)N(CCCl)CCCl` [Compound 127A], the IC50 in assay [1] was not below 200 µM; in assay [2] it was 5.8 µM; in assay [3], 15.2 µM.
Take `N#Cc1ccc(S(=O)(=O)N[C@@H](CS(=O)(=O)CCOP(=O)(N(CCCl)CCCl)N(CCCl)CCCl)C(=O)N2CCOCC2)cc1` [Compound 100A]: the half-inhibitory concentration (IC50) in assay [1] was found to be 61.4 µM; in assay [2], 7.4 µM; in assay [3] it was 16.2 µM.
As for `O=C(Nc1cc(CS(=O)(=O)CCOP(=O)(N(CCCl)CCCl)N(CCCl)CCCl)cc(CS(=O)(=O)CCOP(=O)(N(CCCl)CCCl)N(CCCl)CCCl)c1)C1CCCNC1` (stereo not drawn) [Compound 21B], the IC50 in assay [1] came to 132 µM; in assay [2] it was 4.1 µM; in assay [3], 14.9 µM.
Regarding `CCN(CC)C(=O)c1ccc(CS(=O)(=O)CCOP(=O)(N(CCCl)CCCl)N(CCCl)CCCl)cc1` [Compound 157A], the concentration for half-maximal inhibition (IC50) in assay [1] worked out at 29.6 µM; in assay [2] it was 2.3 µM; in assay [3] it was 3.1 µM.
Taken in the same sequence, the figures for `NC(=O)[C@@H](N)CS(=O)(=O)CCOP(=O)(N(CCCl)CCCl)N(CCCl)CCCl` [Compound 78A] were not below 200 µM, 6.3 µM and 18.8 µM.
The like results for `O=C(c1ccc(CS(=O)(=O)CCOP(=O)(N(CCCl)CCCl)N(CCCl)CCCl)cc1)N1CCOCC1` [Compound 154A] were, in that order, 26.2 µM, 5.8 µM and 5.5 µM.
As for `CN1CCN(C(=O)CS(=O)(=O)CCOP(=O)(N(CCCl)CCCl)N(CCCl)CCCl)CC1` [Compound 22A], the 50% inhibitory concentration (IC50) in assay [1] came out at 38.5 µM; in assay [2], 8.4 µM; in assay [3], 23.7 µM.
`N[C@@H](CS(=O)(=O)CCOP(=O)(N(CCCl)CCCl)N(CCCl)CCCl)C(=O)N1CCN(C(=O)c2ccco2)CC1` [Compound 90A]: the concentration for half-maximal inhibition (IC50) in assay [1] is not below 200 µM; in assay [2], 10.4 µM; in assay [3] it was 23.8 µM.
Taken in the same sequence, the figures for `CC(C)NC(=O)[C@H](CS(=O)(=O)CCOP(=O)(N(CCCl)CCCl)N(CCCl)CCCl)NC(=O)OC(C)(C)C` [Compound 84A] were 29.6 µM, 6 µM and 10.6 µM.
Taken in the same sequence, the figures for `CC(C)(C)S(=O)(=O)CCOP(=O)(N(CCCl)CCCl)N(CCCl)CCCl` [Compound 7A] were 165 µM, 21.8 µM and 20.6 µM.
With `O=P(OCCS(=O)(=O)c1ccc(-c2ccccc2)cc1)(N(CCCl)CCCl)N(CCCl)CCCl` [Compound 113A], the half-inhibitory concentration (IC50) in assay [1] is 18.4 µM; in assay [2] it was 2.2 µM; in assay [3] it was 10.9 µM.
The like results for `CC(=O)NCCS(=O)(=O)CCOP(=O)(N(CCCl)CCCl)N(CCCl)CCCl` [Compound 17A] were, in that order, 13.9 µM, 4.2 µM and 6.3 µM.
Taken in the same sequence, the figures for `CC(C)S(=O)(=O)CCOP(=O)(N(CCCl)CCCl)N(CCCl)CCCl` [Compound 4A] were 67.8 µM, 12.7 µM and 24 µM.
For the compound `CC(=O)NC(C(=O)O)C(C)(C)S(=O)(=O)CCOP(=O)(N(CCCl)CCCl)N(CCCl)CCCl` (stereo not drawn) [Compound 74A], the IC50 in assay [1] was not below 200 µM; in assay [2], 27.2 µM; in assay [3], 46.7 µM.
With `O=C(NCc1ccccc1)[C@H](CS(=O)(=O)CCOP(=O)(N(CCCl)CCCl)N(CCCl)CCCl)NS(=O)(=O)c1ccccc1` [Compound 91A], the IC50 in assay [1] turned out to be 33.3 µM; in assay [2] it was 4.8 µM; in assay [3], 10.7 µM.
Consider `O=[N+]([O-])c1cc(CS(=O)(=O)CCOP(=O)(N(CCCl)CCCl)N(CCCl)CCCl)cc(CS(=O)(=O)CCOP(=O)(N(CCCl)CCCl)N(CCCl)CCCl)c1` [Compound 16B], for which the IC50 in assay [1] was 9.2 µM; in assay [2], 4.5 µM; in assay [3], 2.9 µM.
For `Cc1ccc(S(=O)(=O)CCOP(=O)(N(CCCl)CCCl)N(CCCl)CCCl)cc1` [Compound 107A], the half-maximal inhibitory concentration (IC50) in assay [1] worked out at 18.1 µM; in assay [2] it was 1.6 µM; in assay [3] it was 2.5 µM.
The like results for `CC(C(C)S(=O)(=O)CCOP(=O)(N(CCCl)CCCl)N(CCCl)CCCl)S(=O)(=O)CCOP(=O)(N(CCCl)CCCl)N(CCCl)CCCl` (stereo not drawn) [Compound 2B] were, in that order, 10.9 µM, 0.3 µM and not below 200 µM.
Taken in the same sequence, the figures for `N#Cc1ccc(CS(=O)(=O)CCOP(=O)(N(CCCl)CCCl)N(CCCl)CCCl)cc1` [Compound 153A] were 6.9 µM, 1.8 µM and 3 µM.
Taken in the same sequence, the figures for `O=P(OCCS(=O)(=O)c1ccc(Cl)c(Cl)c1)(N(CCCl)CCCl)N(CCCl)CCCl` [Compound 112A] were 6.3 µM, 0.8 µM and 1 µM.
On to `O=C(O)c1cccc(S(=O)(=O)CCOP(=O)(N(CCCl)CCCl)N(CCCl)CCCl)c1` [Compound 119A], for which the half-maximal inhibitory concentration (IC50) in assay [1] was found to be 189 µM; in assay [2], 9.8 µM; in assay [3], 32.5 µM.
